The results in this text go back to patent US20240383915A1, “OXAZEPINE COMPOUNDS AND USES THEREOF IN THE TREATMENT OF CANCER” (Genentech, Inc., priority 2021, published 2024).

Usually IC50 stands for the concentration that inhibits the measured activity by half.

The target of one experiment is KRAS G12D (Homo sapiens (Human), UniProt P01116, G12D). The experiment can be described thus: KRas (G12D) GDP HTRF (BODIPY-GDP exchange TR-FRET). It counts as biochemical. As for the experimental part: (§1) KRAS Biochemical Assay—BODIPY-GDP Exchange TR-FRET. Biochemical compound potencies were assessed by evaluating inhibition of SOS1-mediated nucleotide exchange in KRAS G12D. The SOS1-promoted exchange of fluorescently-labeled GDP (BODIPY-GDP) was monitored by time-resolved fluorescence resonance energy transfer (TR-FRET). Compounds solubilized in DMSO were dispensed as concentration series into 384-well white assay plates. A preformed complex of biotin-tagged recombinant human KRAS (1.5 nM mutant G12D or wild type) and 0.15 nM terbium-labeled streptavidin (CisBIO) prepared in 10 μL/well assay buffer (20 mM HEPES, pH 7.5, 50 mM NaCl, 10 mM MgCl2, 0.01% Tween-20 and 1 mM dithiothreitol) was added and allowed to incubate for 10-minutes. The reaction was initiated with the addition of 5 μL of 3 nM recombinant human SOS1 and 300 nM BODIPY-GDP in assay buffer. After a 60-minute incubation, the fluorescence was measured with excitation at 337 nm and emission at 490 and 520 nm. The TR-FRET ratio was determined as the fluorescence at 520 nm divided by the fluorescence at 490 nm multiplied by 10,000. […] The normalized TR-FRET results were plotted against compound concentration, and the data fit to a 4-parameter Hill equation to determine the IC50 values.
Sequence of KRAS G12D (P01116-2 other isoform, or with tags, fused parts or gaps G12D): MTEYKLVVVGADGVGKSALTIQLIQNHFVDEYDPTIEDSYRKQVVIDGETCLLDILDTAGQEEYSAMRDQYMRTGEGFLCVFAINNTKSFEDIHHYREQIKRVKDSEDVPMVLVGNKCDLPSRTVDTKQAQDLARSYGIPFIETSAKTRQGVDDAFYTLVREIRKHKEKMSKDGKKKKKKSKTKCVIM

The target of another experiment is KRAS wild type (Homo sapiens (Human), UniProt P01116). As to the kind of experiment: KRas (wt) GDP HTRF (BODIPY-GDP exchange TR-FRET). The experiment is classed as biochemical. As for the experimental part:
as §1

The subject of the next experiment is SW480 cells. As to the kind of experiment: SW480 proliferation assay. It counts as cell-based. The settings on record: Homo sapiens, SW480, SW480; read-out: SW480 Prolif IC50 (G12V).
Another experiment deals with KRas (Homo sapiens (Human), UniProt P01116). As to the kind of experiment: KRas GDP HTRF (BODIPY-GDP exchange TR-FRET). The experiment is classed as biochemical. In outline: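 Inhibition of SOS1-mediated exchange of BODIPY-GDP on KRAS G12D, started with 3 nM recombinant human SOS1 and 300 nM BODIPY-GDP and read after 60 min. TR-FRET excitation 337 nm, ratio 520/490 nm ×10,000. IC50 from 4-parameter Hill fit of normalized data.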
Sequence of KRas (P01116-2 other isoform, or with tags, fused parts or gaps): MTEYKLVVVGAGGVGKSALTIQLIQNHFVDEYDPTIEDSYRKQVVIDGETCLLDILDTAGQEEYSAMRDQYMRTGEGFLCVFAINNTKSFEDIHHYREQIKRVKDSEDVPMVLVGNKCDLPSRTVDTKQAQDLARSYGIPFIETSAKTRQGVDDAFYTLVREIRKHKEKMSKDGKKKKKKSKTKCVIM
A general note: In TR-FRET formats the signal depends on donor and acceptor labels being close together.

The target of another experiment is KRas(G12V) (Homo sapiens (Human), UniProt P01116, G12V). As to the kind of experiment: KRas(G12V) GDP HTRF (BODIPY-GDP exchange TR-FRET). The experiment is classed as biochemical.
Sequence of KRas(G12V) (P01116-2 other isoform, or with tags, fused parts or gaps G12V): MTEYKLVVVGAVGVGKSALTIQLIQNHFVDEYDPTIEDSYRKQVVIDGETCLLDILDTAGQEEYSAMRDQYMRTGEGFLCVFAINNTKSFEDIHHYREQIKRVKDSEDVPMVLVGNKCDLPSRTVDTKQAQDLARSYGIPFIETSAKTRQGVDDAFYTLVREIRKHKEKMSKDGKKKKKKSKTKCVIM
The test system of the next experiment is PC-9 cells. The experiment can be described thus: PC9 proliferation assay. The experiment is classed as cell-based, human. The conditions noted are these: Homo sapiens, PC-9, PC9; read-out: PC9 Prolif IC50 (G12V).

Sequence of KRAS wild type (P01116-2 other isoform, or with tags, fused parts or gaps): as the sequence (P01116-2 other isoform, or with tags, fused parts or gaps) above

Turning to `C=C1CN2CCC[C@@]2(COc2nc3c4c(c(Cl)c(-c5nc(N)cc(C)c5C(F)(F)F)c(F)c4n2)OCCN3C2CCNC2)C1` (stereo partly shown) [Example 515], the IC50 was found to be 3.39 nM against KRAS G12D and 20 nM against KRAS wild type.
The like results for `C=C1CN2CCC[C@@]2(COc2nc3c4c(c(Cl)c(-c5c(F)ccc6cnn(C)c56)cc4n2)OCCN3CCN(C)C)C1` [Example 512] were, in that order, 174 nM and 1110 nM.
Taken in the same sequence, the figures for `C=C1CN2CCC[C@@]2(COc2nc3c4c(c(Cl)c(-c5nc(N)cc(C)c5C(F)(F)F)c(F)c4n2)OCCN3C2CCNC2)C1` (stereo partly shown) [Example 518] were 29 nM and 128 nM.
On to `Cc1cc(N)nc(-c2c(Cl)c3c4c(nc(OC[C@@H]5C[C@@H](F)CN5C)nc4c2F)N([C@H](C)c2cccnc2N)CCO3)c1C(F)(F)F` (atropisomer, axis not shown) [Example 106, 6-((R)-4-((R)-1-(2-aminopyridin-3-yl)ethyl)-8-chloro-10-fluoro-2-(((2S,4R)-4-fluoro-1-methylpyrrolidin-2-yl)methoxy)-5,6-dihydro-4H-[1,4]oxazepino[5,6,7-de]quinazolin-9-yl)-4-methyl-5-(trifluoromethyl)pyridin-2-amine], for which the IC50 in the experiment with SW480 cells is 9.4 nM; against KRas it was 0.14 nM; on KRas(G12V), 0.13 nM; in the experiment with PC-9 cells, 970 nM.
The like results for `Cc1cc(N)nc(-c2c(Cl)c3c4c(nc(OC[C@@]56CCCN5C[C@H](F)C6)nc4c2F)N([C@@H]2CCCc4ccnc(N)c42)CCO3)c1C(F)(F)F` (atropisomer, axis not shown; (aS)) [Example 65a, (R)-8-((R)-9-(6-amino-4-methyl-3-(trifluoromethyl)pyridin-2-yl)-8-chloro-10-fluoro-2-(((2R,7aS)-2-fluorotetrahydro-1H-pyrrolizin-7a(5H)-yl)methoxy)-5,6-dihydro-4H-[1,4]oxazepino[5,6,7-de]quinazolin-4-yl)-5,6,7,8-tetrahydroisoquinolin-1-amine] were, in that order, 2.6 nM, 0.25 nM, 0.1 nM and 940 nM.
The like results for `Cc1cc(N)nc(-c2c(Cl)c3c4c(nc(OC[C@H]5CN(C)CCO5)nc4c2F)N([C@H](C)c2cccnc2N)CCO3)c1C(F)(F)F` (atropisomer, axis not shown) [Example 124, 6-((R)-4-((R)-1-(2-aminopyridin-3-yl)ethyl)-8-chloro-10-fluoro-2-(((R)-4-methylmorpholin-2-yl)methoxy)-5,6-dihydro-4H-[1,4]oxazepino[5,6,7-de]quinazolin-9-yl)-4-methyl-5-(trifluoromethyl)pyridin-2-amine] were, in that order, 70 nM, 0.204 nM, 0.1 nM and 2700 nM.
The like results for `Cc1cc(N)nc(-c2c(Cl)c3c4c(nc(OCC5CCN(S(C)(=O)=O)CC5)nc4c2F)N([C@H](C)c2cccnc2N)CCO3)c1C(F)(F)F` (atropisomer, axis not shown) [Example 148, 6-((R)-4-((R)-1-(2-aminopyridin-3-yl)ethyl)-8-chloro-10-fluoro-2-((1-(methylsulfonyl)piperidin-4-yl)methoxy)-5,6-dihydro-4H-[1,4]oxazepino[5,6,7-de]quinazolin-9-yl)-4-methyl-5-(trifluoromethyl)pyridin-2-amine] were, in that order, 410 nM, 3.6 nM, 1.1 nM and 9600 nM.
`Cc1cc(N)nc(-c2cc3nc(OC[C@@]45CCCN4CC4(C5)OCCO4)nc4c3c(c2Cl)OCCN4Cc2cccnc2N)c1C(F)(F)F` [Example 35, (S)-6-(4-((2-aminopyridin-3-yl)methyl)-8-chloro-2-((dihydro-1H,3H-spiro[pyrrolizine-2,2′-[1,3]dioxolan]-7a(5H)-yl)methoxy)-5,6-dihydro-4H-[1,4]oxazepino[5,6,7-de]quinazolin-9-yl)-4-methyl-5-(trifluoromethyl)pyridin-2-amine]: the IC50 in the experiment on SW480 cells amounted to 780 nM; against KRas it was 0.63 nM; against KRas(G12V), 0.39 nM; with PC-9 cells, 1700 nM.
The like results for `C=C1CN2CCC[C@@]2(COc2nc3c4c(c(Cl)c(-c5nc(N)cc(C)c5C(F)(F)F)c(F)c4n2)OCCN3C)C1` [Example 40] were, in that order, 1200 nM, 4.6 nM, 0.99 nM and 2100 nM.
On to `Cc1cc(N)nc(-c2c(Cl)c3c4c(nc(OC[C@@H]5C[C@@]6(CN5C)CC6(F)F)nc4c2F)N([C@H](C)c2cccnc2N)CCO3)c1C(F)(F)F` (atropisomer, axis not shown) [Example 67, 6-((R)-4-((R)-1-(2-aminopyridin-3-yl)ethyl)-8-chloro-2-(((3S,6S)-1,1-difluoro-5-methyl-5-azaspiro[2.4]heptan-6-yl)methoxy)-10-fluoro-5,6-dihydro-4H-[1,4]oxazepino[5,6,7-de]quinazolin-9-yl)-4-methyl-5-(trifluoromethyl)pyridin-2-amine], for which the IC50 came to 3.7 nM in the experiment with SW480 cells, 0.55 nM at KRas, 0.17 nM against KRas(G12V) and 2800 nM in the experiment with PC-9 cells.
The like results for `Cc1cc(N)nc(-c2c(Cl)c3c4c(nc(OCC56CCC(CC5)OC6)nc4c2F)N([C@H](C)c2cccnc2N)CCO3)c1C(F)(F)F` [Example 157, 6-((R)-2-((2-oxabicyclo[2.2.2]octan-4-yl)methoxy)-4-((R)-1-(2-aminopyridin-3-yl)ethyl)-8-chloro-10-fluoro-5,6-dihydro-4H-[1,4]oxazepino[5,6,7-de]quinazolin-9-yl)-4-methyl-5-(trifluoromethyl)pyridin-2-amine] were, in that order, 400 nM, 3.2 nM, 0.81 nM and 8200 nM.
The like results for `Cc1cc(N)nc(-c2c(Cl)c3c4c(nc(OC[C@@]56CCCN5C[C@H](F)C6)nc4c2F)N([C@@H](c2cccnc2N)C2CC2)CCO3)c1C(F)(F)F` (atropisomer, axis not shown; (aS)) [Example 86, 6-((R)-4-((R)-(2-aminopyridin-3-yl)(cyclopropyl)methyl)-8-chloro-10-fluoro-2-(((2R,7aS)-2-fluorotetrahydro-1H-pyrrolizin-7a(5H)-yl)methoxy)-5,6-dihydro-4H-[1,4]oxazepino[5,6,7-de]quinazolin-9-yl)-4-methyl-5-(trifluoromethyl)pyridin-2-amine] were, in that order, 4.9 nM, 0.44 nM, 0.15 nM and 3700 nM.
Taken in the same sequence, the figures for `Cc1cc(N)nc(-c2c(Cl)c3c4c(nc(OC[C@@H]5CC[C@H]6COCCN65)nc4c2F)N([C@H](C)c2cccnc2N)CCO3)c1C(F)(F)F` (atropisomer, axis not shown; (aS)) [Example 87a, 6-((R)-4-((R)-1-(2-aminopyridin-3-yl)ethyl)-8-chloro-10-fluoro-2-(((6S,8aS)-hexahydro-1H-pyrrolo[2,1-c][1,4]oxazin-6-yl)methoxy)-5,6-dihydro-4H-[1,4]oxazepino[5,6,7-de]quinazolin-9-yl)-4-methyl-5-(trifluoromethyl)pyridin-2-amine] were 2.5 nM, 0.106 nM, 0.087 nM and 6300 nM.
